“And” between values parts separate entries of the source, which are not always exact repeats. Identical values can stand only once. Like-named read-outs stand apart in the source and are kept apart here.
Assays:
[1] = Metabolic stability of diltiazem in rat liver S9 fraction; type: in vitro ADME
[2] = Transport of diltiazem mucosal to serosal, normal sac method, rat duodenum; type: in vitro ADME; details: rifampicin pretreatment
[3] = extensive presystemic metabolism; ref Kane et al. 2000; cited from earlier work
[4] = in vivo; details: male, Wistar, rat, po, 15 mg/kg
[5] = with GFJ; cited from earlier work
[6] = cited from earlier work
[7] = system: P-gp; details: chronic administration of GFJ; ref Varma 2005; cited from earlier work
[8] = multiple dose GFJ, listed as DTZ

## COc1ccc([C@@H]2Sc3ccccc3N(CCN(C)C)C(=O)[C@@H]2OC(C)=O)cc1 [Diltiazem, diltiazem]
[1]; control rat liver S9, diltiazem alone 12.5 µM, 1 mg protein/ml, 37 °C, 0 min
  % metabolism of diltiazem: 0%
[1]; control rat liver S9, diltiazem alone, 5 min
  % metabolism of diltiazem: 36.61%
[1]; control rat liver S9, diltiazem alone, 10 min
  % metabolism of diltiazem: 49.01%
[1]; control rat liver S9, diltiazem alone, 20 min
  % metabolism of diltiazem: 60.15%
[1]; control rat liver S9, diltiazem alone, 30 min
  % metabolism of diltiazem: 69.56%
[1]; control rat liver S9, diltiazem alone, 40 min
  % metabolism of diltiazem: 77.47%
[1]; control rat liver S9, diltiazem alone, 60 min
  % metabolism of diltiazem: 88.91%
[1]; control rat liver S9, diltiazem alone, 60 min, listed as DTZ
  % metabolism of diltiazem: 88.9%
[1]; control rat liver S9, in presence of testosterone, 0 min
  % metabolism of diltiazem: 0%
[1]; control rat liver S9, in presence of testosterone, 5 min
  % metabolism of diltiazem: 9.19%
[1]; control rat liver S9, in presence of testosterone, 10 min
  % metabolism of diltiazem: 16.32%
[1]; control rat liver S9, in presence of testosterone, 20 min
  % metabolism of diltiazem: 29.91%
[1]; control rat liver S9, in presence of testosterone, 30 min
  % metabolism of diltiazem: 35.67%
[1]; control rat liver S9, in presence of testosterone, 40 min
  % metabolism of diltiazem: 38.16%
[1]; control rat liver S9, in presence of testosterone, 60 min
  % metabolism of diltiazem: 41.25%
[1]; liver S9 from rats treated with GFJ orally for 7 days, 0 min
  % metabolism of diltiazem: 0%
[1]; liver S9 from rats treated with GFJ orally for 7 days, 5 min
  % metabolism of diltiazem: 12.79%
[1]; liver S9 from rats treated with GFJ orally for 7 days, 10 min
  % metabolism of diltiazem: 21.11%
[1]; liver S9 from rats treated with GFJ orally for 7 days, 20 min
  % metabolism of diltiazem: 28.49%
[1]; liver S9 from rats treated with GFJ orally for 7 days, 30 min
  % metabolism of diltiazem: 31.38%
[1]; liver S9 from rats treated with GFJ orally for 7 days, 40 min
  % metabolism of diltiazem: 40.76%
[1]; liver S9 from rats treated with GFJ orally for 7 days, 60 min
  % metabolism of diltiazem: 48.26%
[1]; liver S9 from rats treated with GFJ orally for 7 days, 60 min, listed as DTZ
  % metabolism of diltiazem: 48.3%
[2]
  Increase of mean cumulative efflux of diltiazem vs control: 35.79%
Diltiazem 15 mg/kg p.o with single dose GFJ
  T1/2: 31.2 min
Multiple dose GFJ
  AUC0–24 (AUC0–t), % inhibition (decrease) compared to control: 43.22%
  Cmax, % inhibition (decrease) compared to control: 66.09%
  T1/2, % change compared to control (footnote: % inhibition; text: increased): 136.7%
  Tmax, % change compared to control (footnote: % inhibition; text: increased): 437.5%
[8]
  AUC0–24 (AUC0–t), % inhibition (decrease) compared to control: 43.2%
  AUC0–∞, % inhibition (decrease) compared to control: 35.1%
  Cmax, % inhibition (decrease) compared to control: 66.0% and 66.1%
  Tmax, % change compared to control (footnote: % inhibition; text: increased): 437.5%
Single dose GFJ
  AUC0–24 (AUC0–t), % inhibition (decrease) compared to control: 1.26%
  AUC0–∞, % inhibition (decrease) compared to control: 17.98%
  Cmax, % inhibition (decrease) compared to control: 23.1%
  T1/2, % change compared to control (footnote: % inhibition): 6.12%
  Tmax, % change compared to control (footnote: % inhibition): 0%
Single dose GFJ, listed as DTZ
  Cmax, % inhibition (decrease) compared to control: 23.14%
  T1/2, % change compared to control (footnote: % inhibition): no statistically significant change
  Tmax, % change compared to control (footnote: % inhibition): no change
[3]
  oral bioavailability: 40–50%
[4]; in vivo
  AUC(0-inf): 51.5 ng·h/mL
[4]; plasma
  Tmax: 4.8 min
[4]; plasma, AUC0–24, diltiazem 15 mg/kg p.o with water (control)
  AUC(0-t): 43.6 ng·h/mL
[4]; plasma, AUC0–24, diltiazem 15 mg/kg p.o, multiple dose GFJ
  AUC(0-t): 24.8 ng·h/mL
[4]; plasma, AUC0–∞, diltiazem 15 mg/kg p.o with water (control)
  AUC(0-inf): 62.8 ng·h/mL
[4]; plasma, AUC0–∞, diltiazem 15 mg/kg p.o, multiple dose GFJ
  AUC(0-inf): 33.7 ng·h/mL
[4]; plasma, Cmax, diltiazem 15 mg/kg p.o with water (control), n = 6
  Cmax: 121 ± 16.4 ng/mL
[4]; plasma, T1/2, diltiazem 15 mg/kg p.o with water (control)
  half-life: 29.4 min

## CCOC(=O)C1=C(COCCN)NC(C)=C(C(=O)OC)C1c1ccccc1Cl (stereo not drawn) [amlodipine]
[5]
  increase of Tmax: 115%

## COC(=O)C1=C(C)NC(C)=C(C(=O)OC)C1c1ccccc1[N+](=O)[O-] [nifedipine]
[6]; intraduodenal, GFJ administered concomitantly, ref Mohri et al. 2000
  reduction of area under the curve: 50%
[6]; rats, long-term administration of GFJ, intraduodenally, ref Mohri et al. (2000)
  increase of nifedipine levels: approximately 1.62 times

## CC(=O)O[C@H]1C(=O)[C@@]2(C)[C@H]([C@H](OC(=O)c3ccccc3)[C@]3(O)C[C@H](OC(=O)[C@H](O)[C@@H](NC(=O)c4ccccc4)c4ccccc4)C(C)=C1C3(C)C)[C@]1(OC(C)=O)CO[C@@H]1C[C@@H]2O [paclitaxel]
[7]
  efflux ratio (ER): 20.8

Source: paper PMC6052858 (Die Pharmazie, 2009)
